The target in data set [1] is T1, human recombinant GIP receptor (Homo sapiens, UniProt P48546).
T1 construct: expressed in transfected cells; host or cells: CHO-K1 clonal cells (membranes)
T1 sequence (P48546 22-466): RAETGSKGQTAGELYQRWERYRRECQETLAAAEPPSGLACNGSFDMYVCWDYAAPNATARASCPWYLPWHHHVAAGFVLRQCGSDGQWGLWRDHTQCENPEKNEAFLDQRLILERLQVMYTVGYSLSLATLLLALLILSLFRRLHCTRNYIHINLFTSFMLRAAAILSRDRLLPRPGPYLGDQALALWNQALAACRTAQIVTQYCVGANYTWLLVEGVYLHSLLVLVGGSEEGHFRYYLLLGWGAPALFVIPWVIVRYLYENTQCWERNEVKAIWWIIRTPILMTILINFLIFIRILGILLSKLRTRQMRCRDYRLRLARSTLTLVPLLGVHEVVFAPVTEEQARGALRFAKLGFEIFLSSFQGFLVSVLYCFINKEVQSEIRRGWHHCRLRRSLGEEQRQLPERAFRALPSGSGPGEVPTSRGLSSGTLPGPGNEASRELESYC
Description: In vitro hGIP receptor binding assay ([125I]GIP displacement, CHO-K1 membranes). The text has this: A. In Vitro hGIP Receptor Binding Assay

The nature of data set [2]: Human plasma half-life assay. As to conditions: human plasma, 37° C., LC-MS; read-out: Human Plasma T½ (converted). Format: in vitro ADME.
Data set [3] can be described thus: Rat plasma half-life assay. As to conditions: rat plasma, 37° C., LC-MS; read-out: Rat Plasma T½ (converted). Format: in vitro ADME.
The nature of data set [4]: In vivo insulin secretion in normal rats. Details: species or system Sprague Dawley rats. The following applies: fasted male rats, iv compound with glucose 1 g/kg, samples to 20 minutes. The method, then:
D. Determination of In Vivo Insulin Secretion in Normal Rats
Male Sprague Dawley rats with a body weight of approximately 275-300 g were used as experimental subjects. The day prior to the treatment, right atrial cannulae were implanted via the jugular vein under chlorohydrate. Each cannula was filled with 100 u/ml heparin saline and tied. The rats were fasted for approximately 18 hours prior to dosing with the compound or the vehicle (saline/0.25% BSA). The day of the experiment, aliquots of compound were thawed, brought to room temperature and vortexed thoroughly. A careful check was made for any sign of compound coming out of solution. 10 minutes prior to compound/glucose injection, a 500 μl blood sample was withdrawn and replaced with an equal volume of heparinized saline (10 u/ml). At time 0, a 500 μl blood sample was withdrawn through the cannula. Next, either the vehicle or the appropriate dose of the compound was injected into the cannula and pushed in with the glucose (1 g/kg) or vehicle solution. Finally, 500 μl of volume of heparinized saline (10 u/ml) was used to push in the remaining glucose through the cannula. Additional 500 μl blood samples were withdrawn at 2.5, 5, 10, and 20-minute post-glucose dosing; each immediately followed by a bolus, iv injection of 500 μl heparinized saline (10 u/ml) through the cannula. The plasma was collected from the blood samples by centrifugation, and stored at −20° C. until assay for insulin content. Numerical values of the total insulin secretion, which show the in vivo effects of the compounds of Examples 105, 106, 118, and 119, are summarized in Table 3.

We go through 1 compound from patent publication US9074014B2 (Ipsen Pharma S.A.S., priority 2008, dated 2015).

Some results are limits rather than exact numbers.

Turning to `CCCC[C@H](NC(=O)[C@H](C)NC(=O)[C@@H](NC(=O)C1(NC(=O)[C@H](Cc2ccc(O)cc2)NC(=O)[C@H](CC(=O)O)NC(=O)[C@H](CO)NC(=O)[C@@H](NC(=O)[C@H](Cc2ccccc2)NC(=O)[C@@H](NC(=O)CNC(=O)[C@H](CCC(=O)O)NC(=O)CNC(=O)[C@@H](N)Cc2ccc(O)cc2)[C@@H](C)O)[C@@H](C)CC)CCCC1)[C@@H](C)CC)C(=O)N[C@@H](CC(=O)O)C(=O)N[C@@H](CCCCN)C(=O)N[C@H](C(=O)N[C@@H](Cc1c[nH]cn1)C(=O)N[C@@H](CCC(N)=O)C(=O)N[C@@H](CCC(N)=O)C(=O)N[C@@H](CC(=O)O)C(=O)N[C@@H](Cc1ccccc1)C(=O)N[C@H](C(=O)N[C@@H](CC(N)=O)C(=O)N[C@@H](Cc1c[nH]c2ccccc12)C(=O)N[C@@H](CC(C)C)C(=O)N[C@@H](CC(C)C)C(=O)N[C@@H](C)C(=O)N[C@@H](CCC(N)=O)C(=O)N[C@@H](CCCCN)C(=O)NCC(=O)N[C@@H](CCCCN)C(=O)N[C@@H](CCCCN)C(=O)N[C@@H](CC(N)=O)C(=O)N[C@@H](CC(=O)O)C(=O)N[C@@H](Cc1c[nH]c2ccccc12)C(=O)N[C@@H](CCCCN)C(=O)N[C@@H](Cc1c[nH]cn1)C(=O)N[C@@H](CC(N)=O)C(=O)N[C@H](C(=O)N[C@H](C(=O)N[C@@H](CCC(N)=O)C(=O)N[C@@H](Cc1c[nH]cn1)C(=O)O)[C@@H](C)O)[C@@H](C)CC)C(C)C)[C@@H](C)CC` [Example 118, (Gly^2, A5c^11, Nle^14, His^43)hGIP(1-43)-OH], in data set [1], the Ki came to 0.87 nM. The half-life at 0.1 mg/ml was over 42 h in data set [2] and 11.2 h in data set [3]. In addition, the “AUC (total insulin secretion)” value in data set [4] worked out at 88.22.

One may read the Ki as a measure of affinity in units of concentration, obtained from inhibition or displacement.
